The values that follow come from US9145377B2, “G-quadruplex stabilising agent” (University College London, priority 2011, dated 2015).

SMILES strings stand for the structures.

The nature of data set [1]: Solubility limit in aqueous media (dose ranging, sterile dH2O). Particulars: dissolved in sterile dH2O, intra-peritoneal dose ranging in CD1 mice. Type of data set: physicochemical. On the procedure:
A dose range assay was performed in female CD1 mice, with an initial mean weight of 25 g (Harlan UK Ltd,).

A further data set deals with renal carcinoma cells. As to the kind of experiment: Growth inhibition, sulforhodamine B (SRB) assay, 96 h exposure. Particulars: normoxia (20% oxygen). Type of data set: cell-based, human. From the text:
(§1) A498 human renal, 786-0 human renal, MCF-7 human breast, Mia-Pa-Ca human pancreatic, Panc-1 human pancreatic, and PC-3 human prostate cancer cells were obtained from American Type Culture Collection (Rockville, Md.). Human RCC4 and RCC4/VHL cells were obtained from Professor P. Maxwell (University College London, UK). RCC4 cells lack pVHL therefore express constitutively high levels of HIF-1α. These cells were stably transfected with a wild-type pVHL gene, as previously described. All cells were grown in humidified 95% air, 5% CO2 at 37° C. in Dulbecco's modified Eagle's medium (DMEM), RPMI or MEM medium supplemented with 10% fetal bovine serum (FBS) and 2 mM L-Glutamine according to advice from ATCC (all reagents were obtained from Gibco, Invitrogen, UK). HIF-1α and HIF-2α antibodies were obtained from BD Transduction Labs, AKT antibody was obtained from Cell Signalling Biotechnology, and lamin NC, actin, HIF-1β, HSP-90, and Raf-1 antibodies were from Santa Cruz Biotechnology.
For orientation: In SRB staining, fixed cells bind dye roughly in proportion to their protein.

A further data set deals with HIF-2α. Put plainly: Western blotting for HIF-2α protein in 786-0 cells. Type of data set: cell-based, human. Particulars: hypoxia (1% oxygen), 4 h dose course.
Description: as §1
(§2) Culture flasks were incubated for various times at 37° C. in humidified air, 5% CO2 (normoxia) or 1% O2, 5% CO2, 94% N2 (hypoxia) using an InVivo Hypoxia Workstation 400 with a Ruskin hypoxic gas mixer (Biotrace International). […]
(§3) Western blotting was performed as described previously. Blots were quantified using ImageQuant software (Molecular Dynamics). […]
(Immunoblotting shows a protein as a band on a membrane.)

Another data set has as its system AKT. Put plainly: Western blotting for AKT in RCC4 and RCC4VHL cells. Particulars: CL67 5×IC50, normoxia (20% oxygen). Type of data set: cell-based, human.
Description: as §1
(§4) Western blotting was performed as described previously. Blots were quantified using ImageQuant software (Molecular Dynamics). Nuclear and cytoplasmic extracts were prepared using NE-PER Nuclear and Cytoplasmic Extraction Reagents (Pierce Biotechnology).
(§5) Cells were then lysed and Western blotting was performed. Probing for HSP-90, Raf-1, AKT and actin (as a loading control).

The subject of the next data set is VEGF. As to the kind of experiment: VEGF measurement in cell culture medium by ELISA. Particulars: RCC4 cells, CL67 5×IC50 or dose indicated, 4 h or time indicated. Type of data set: cell-based, human. On the procedure: (§6) Culture flasks were incubated for various times at 37° C. in humidified air, 5% CO2 (normoxia) or 1% O2, 5% CO2, 94% N2 (hypoxia) using an InVivo Hypoxia Workstation 400 with a Ruskin hypoxic gas mixer (Biotrace International). After incubation, cells were washed twice with cold PBS equilibrated with the same gas mixture. In some studies, medium was removed at the end of incubation and stored at […] for measurement of vascular endothelial growth factor (VEGF) levels.

Another data set has as its system HSP-90. Put plainly: Western blotting for HSP-90 in RCC4 and RCC4VHL cells. Particulars: CL67 5×IC50, normoxia (20% oxygen). Type of data set: cell-based, human.
Description: as §1, §4, §5

For another data set, the system named is HIF-1 transactivation. Put plainly: Luciferase reporter assay (hypoxia response element, HRE) in RCC4 cells. Type of data set: cell-based, human. Particulars: normoxia or hypoxia (1% oxygen), 4 h. For orientation: In a reporter assay the amount or activity of a reporter protein is the signal.
For a further data set, the system named is Raf-1. As to the kind of experiment: Western blotting for Raf-1 in RCC4 and RCC4VHL cells. Particulars: CL67 5×IC50, normoxia (20% oxygen). Type of data set: cell-based, human.
Description: as §1, §4, §5

A further data set concerns HIF-1α mRNA. Put plainly: Reverse transcriptase PCR (qRT-PCR) of HIF-1α transcripts in RCC4 cells. Type of data set: cell-based, human. Particulars: 4 h, normoxia.
The subject of the next data set is HIF-1α. Put plainly: Western blotting for HIF-1α protein in RCC4 / RCC4VHL cells. Type of data set: cell-based, human.
Description: as §1, §6, §4
Cells were then lysed and Western blotting was performed probing for HIF-1α, HIF-2α, HIF-1β, or lamin NC (as a loading control).

A further data set concerns HIF-1β. As to the kind of experiment: Western blotting for HIF-1β protein. Type of data set: cell-based, human. Particulars: RCC4 or 786-0 cells, 4 h.
Description: as §1, §2, §3

Description for HIF-1 transactivation: A pGL3 firefly luciferase reporter plasmid containing the phosphoglycerate kinase hypoxia-responsive element was supplied by Professor P. Maxwell (University College London, UK) [1]. The empty pGL3 control plasmid and the pRL-CMV Renilla luciferase plasmids were obtained from Promega. […] Firefly and Renilla luciferase activities were measured using the Dual Luciferase Reporter Assay System (Promega) according to the manufacturer's instructions.
In FIG. 6(A) RCC4 cells were co-transfected with either a vector expressing luciferase under the control of multiple copies of the hypoxia response element (HRE; kindly donated by G. Mellillo, NCI) or an empty vector control (pGL3) in addition to a vector expressing renilla luciferase (to control for transfection efficiency). […] Luciferase activity was then measured using the Promega Dual Luciferase assay Kit and results are expressed as a percentage of the activity of untreated, normoxic cells.
Description for HIF-1α mRNA: Total RNA was isolated from approximately 10^7 cells using the RNeasy kit (Qiagen, Crawley, UK) according to the manufacturer's protocol. HIF-1α transcripts were quantified using two-step, quantitative real time PCR (qRTPCR). First-strand cDNA synthesis was performed for each sample with a Protoscript M-MuLV Taq RT-PCR kit (New England Biolabs, MA, USA) using 1 μg total RNA and oligo-dT primers. qPCR was performed using Stratagene Brilliant III SYBR Green master mix in a Stratagene MX-3000P instrument (Agilent, Tex., USA) according to the manufacturer's instructions using 2 ng input cDNA and primers at 300 nM. […] Samples were normalised to β-actin. Differences in PCR efficiency were normalised using relative standard curves of cDNA pooled from all samples. P-values were determined for 2000 randomisations.
Cells were then lysed and RNA was prepared using a Qiagen RNeasy kit. RT PCR was then performed to determine relative levels of HIF-1α mRNA in each sample.

For the compound `CCN(CC)CC(=O)Nc1cccc(-n2cc(-c3ccc4ccc(-c5cn(-c6cccc(NC(=O)CN(CC)CC)c6)nn5)cc4c3)nn2)c1` [CL67, N,N′-((4,4′-(Naphthalene-2,7-diyl)bis(1H-1,2,3-triazole-4,1-diyl))bis(3,1-phenylene))bis(2-(diethylamino)acetamide)], the melting point (usually the temperature of the solid-liquid transition) fell in the range of 97 to 99 °C. Besides, the “solubility limit of the drug in aqueous media” value in [1] came out at 10 mg/kg. In addition, the “sensitivity of renal cancer cells to inhibition of cell growth compared to other cancer cell lines (breast, pancreatic, prostate)” value with renal carcinoma cells is reported as “enhanced sensitivity”. Moreover, in the data set with HIF-2α, the “HIF-2α protein level (Western blot)” value was “inhibited”. The “expression of AKT (Western blot)” value in the data set with AKT is recorded as “No differences”. The “VEGF levels in medium (ELISA)” value with VEGF is given as “inhibited”. Besides, the “expression of HSP90 (Western blot)” value with HSP-90 is “No differences”. Besides, the “HIF-1 transactivation (HRE luciferase activity)” value in the data set on HIF-1 transactivation is given as “inhibited”. The “expression of Raf-1 (Western blot)” value in the data set on Raf-1 was “No differences”. For the same compound, the “relative expression of HIF-1α mRNA compared to untreated control cells (RT PCR)” value with HIF-1α mRNA is given as “inhibits formation of HIF-1α mRNA”. In addition, the “HIF-1α protein (Western blot) in RCC4VHL cells” value in the data set on HIF-1α (RCC4VHL cells (stably transfected with pVHL), 0, 1, 5 or 10×IC50, normoxia or hypoxia (1% oxygen)) is recorded as “inhibited”. Also, the “HIF-1α protein (Western blot) in RCC4 cells (lacking pVHL)” value in the data set with HIF-1α (RCC4 cells, 0, 1, 5 or 10×IC50, normoxia (20% oxygen) or hypoxia (1% oxygen)) was “inhibited”. Besides, the “HIF-1α protein level (Western blot)” value in the data set on HIF-1α (RCC4 cells, normoxia, 4 h dose course, time course at 5×IC50) is given as “inhibited”. The “HIF-1β protein level (Western blot)” value in the data set on HIF-1β is “did not affect”.
